Columns and labels:
[1] = system: conversion of CoA into 4′-phosphopantetheine in serum; type: biochemical; settings: serum pre-treated with the agent, CoA 10 μM, 3 hours
Procedure: (PpanSH=4′-phosphopantetheine; in all panels CoA was added to the indicated sera with a final starting concentration of 10 μM measured by HPLC analysis and percentages relative to CoA incubation for 3 hours in PBS (=100%) are indicated on the y-axis).
Serum from various species (fetal calf, mouse and human) was pre-conditioned, and CoA conversion into 4′-phosphopantetheine was assessed. First, the effect of heat inactivation of the serum was studied. […] Second, the conversion of CoA to 4′-phosphopantetheine requires the hydrolysis of a phosphoanhydride bond, which is typically catalyzed by (pyro)phosphatases or hydrolases. The majority of enzymes in the known family of (pyro)phosphatases and hydrolases depend on metal ions for their activity. To test these candidates, EDTA was added to serum to chelate metal ions.

[2] = Parallel Artificial Membrane Permeability Assay (PAMPA); type: in vitro ADME; settings: PAMPA
Procedure: FIG. 13E is a depiction of a Parallel Artificial Membrane Permeability Assay (PAMPA). Experiments were performed according to the manufacturer's instructions. In this assay, a two-well system is separated by an artificial lipid-oil-lipid membrane (shown in grey). To the lower (donor) compartment, a compound dissolved in buffer is added, the upper (acceptor) compartment contains only buffer. After 5 hours of incubation, concentration of compound is measured in both wells to assess its propensity to diffuse over the artificial membrane. The permeability was calculated according to the manufacturer's instruction (formulas are depicted to the right). Compounds that are below the assay threshold are predicted to be unable to pass membranes passively, whereas compounds above the threshold are able to pass membranes passively. Ceq=Equilibrium Concentration, CD=Concentration in donor well, VD=Volume of donor well (0.3 ml), CA=Concentration in acceptor well, VA=Volume of acceptor well (0.2 ml), P=Permeability, S=Membrane area (0.3 cm2), t=Incubation time (18000 s).
PAMPA assay procedure: Parallel Artificial Membrane Permeability Assay (PAMPA) was performed and processed according to manufacturer's instructions (BD Gentest Pre-coated PAMPA plates). Briefly, two superimposed wells are separated by an artificial lipid-oil-lipid membrane. The compound of interest (PPanSH, CoA, caffeine, amiloride) was added to the bottom well in phosphate-buffered saline, whereas the top well was filled with phosphate-buffered saline alone. After 5 h of incubation at room temperature, concentrations of the different compounds were measured using UV-VIS absorption spectroscopy (BMG Labtech SPECTROstar Omega) along with calibration curves for all compounds. The permeability efficiency was further calculated according to manufacturer's instructions. For caffeine and amiloride, four replicates were performed; for PPanSH and CoA twelve replicates were performed. Caffeine and amiloride were obtained from Sigma.

[3] = system: primary human fibroblasts from healthy controls, MCAD deficiency and PA deficiency patients; test: Mitochondrial stress test (Seahorse), basal OCR of primary fibroblasts; type: cell-based; settings: data not shown
Text: A study was thus performed to test the ability of S-acetyl-(S)-4′-phosphopantetheine to facilitate increased basal oxidative respiration in primary fibroblast cultures from patients diagnosed with MCAD deficiency and PA deficiency. Impaired metabolism were observed through functional measurements of respiration using a Seahorse XF Analyzer, where oxygen consumption rate (OCR) reflects oxidative respiration.
Patient derived cell lines were subject to a mitochondrial stress test according to standard protocol with a cell seeding density of 30 k cells/well (n=2) in glucose free media. After incubation with various concentrations of S-acetyl-4′-phosphopantetheine or vehicle for 24 h, rescue potential was assessed by increase in basal OCR (average of six readings between 30-70 min), relative to control: basal OCR from vehicle treatment was set to 1.0. […] Experiment was performed in two replicates: systematically outlying values caused by seeding errors, port failures, or values within background were excluded from analysis.

[4] = system: MCAD patient fibroblast cell lines; test: Mitochondrial stress test (Seahorse), reserve capacity of MCAD patient fibroblasts; type: cell-based, human; settings: all cell lines, data not shown
Text: Medium-chain acyl-CoA dehydrogenase (MCAD) deficiency is a condition in which the body's capacity to break down fats with medium chain lengths is impaired, caused by mutations in the ACADM gene, which can lead to hypoglycaemia, and liver dysfunction. Left untreated, it can lead to seizures, coma and other serious health problems, with acute symptoms often preceded by extended periods of fasting or an infection with vomiting. Impaired metabolism were observed through functional measurements of respiration using a Seahorse XF Analyzer, where oxygen consumption rate (OCR) reflects oxidative respiration.
A study was performed to test the Rescue potential of S-acetyl-4′-phosphopantetheine in primary patient fibroblast model of MCAD deficiency. MCAD patient fibroblast cell lines (genotyped as containing homozygous K304E mutations in ACADM) were subject to a mitochondrial stress test according to standard protocol with a cell seeding density of 30 k cells/well (n=2). Rescue potential was assessed by increase in reserve capacity: defined as the difference between basal and maximal OCR, controlled by subtracting values for non-mitochondiral respiration (after rotenone treatment). The study was performed in two replicates.

[5] = system: Drosophila w1118 control fly line; test: Drosophila HoPan toxicity and CoA rescue experiment (eclosion); type: in vivo; settings: HoPan in the food during development
Text: Drosophila HoPan Toxicity and CoA Rescue Experiment: One week old w1118 flies (in the ratio 10 females and 5 males) were kept in vials containing standard fly food with or without HoPan and CoA at indicated concentrations. The flies were allowed to lay eggs for 2 days, after which the adults were discarded. The resulting offspring were allowed to develop. The numbers of flies which eclosed were counted to evaluate HoPan toxicity and CoA rescue efficiency.

HEK293 cells = test: HoPan treatment of mammalian HEK293 cells in combination with CoA or 4′-phosphopantetheine; type: cell-based, human; settings: HoPan alone
Procedure: HoPan treatment of mammalian HEK293 Cells in combination with CoA and 4′-phosphopantetheine treatment: HEK293 cells were maintained in dMEM (Invitrogen) supplemented with 10% fetal calf serum (Gibco) and antibiotics (penicillin/streptomycin, Invitrogen). For HoPan treatment, cells were cultured in custom made dMEM without vitamin B5 (Thermo Scientific) supplemented with dialyzed FCS (Thermo Scientific). CoA or PPanSH was added to HEK293 cells for the final concentration of 25 uM, either in the presence or absence of HoPan (0.5 mM) for 4 days, followed by analysis for phenotype and rescue efficiency of CoA and PPanSH.
Western blot analysis and Antibodies: For Western blot analysis, cells were collected and washed with phosphate buffer saline (PBS), followed by centrifugation. The cells were lysed and sonicated in 1X Laemmli Sample Buffer and boiled for 5 min with 5% β-mercaptoethanol (Sigma). Protein content was determined using DC protein assay (BioRad). Equal amounts of protein were loaded on a 10 or 12.5% SDS-PAGE gel, transferred onto PVDF membranes and blocked with 5% milk in PBS/0.1% Tween, followed by overnight incubation with primary antibodies. The primary antibodies used were: rabbit-anti dPANK/fbl, 1:4000 Eurogentec custom made as described previously5, mouse anti-tubulin (Sigma Aldrich Cat no: T5168, 1:5000), anti-acetyl-Histone3 (Active Motif Cat no: 39139, 1:2000), anti GAPDH (Fitzgerald Cat no: 10R-G109a, 1:10000), rabbit anti COASY (Abcam Cat no: AB129012, 1:1000). Appropriate HRP-conjugated secondary antibodies (Amersham) were used and detection was performed using enhanced chemi-luminescence (Pierce cat nog: 32106) and Amersham hyperfilm (GE Healthcare). Band intensities were quantified with Image-studio software.

Drosophila S2 cells = test: HoPan treatment of Drosophila S2 cells in combination with CoA or 4′-phosphopantetheine; type: cell-based; settings: HoPan alone
Procedure: HoPan treatment of Drosophila S2 Cell in combination with CoA or 4′-phosphopantetheine treatment: Drosophila Schneider's S2 cells were maintained at standard conditions as explained above. Cells in the exponential phase of growth were used for all the experiments. Different indicated concentrations of CoA or 4′-phosphopantetheine (deuterium labelled PPanSH(D4) or unlabeled PPanSH) were added to S2 cells either in the presence or absence of 0.5 mM HoPan (Zhou Fang Pharm Chemical, China) for 48 h. Similarly, Drosophila S2 cells were treated with different concentrations of PPanSH(D4) at either 25° C. or 4° C. and cells were then harvested at various time points to access transport of PPanSH(D4). Stable isotope labelled PPanSH containing 4 deuterium atoms was purchased from Syncom (Groningen, The Netherlands) as a sodium salt (chemical structure is provided in FIG. 13A). As a read out cell count, intracellular total CoA and PPanSH levels (both labelled and unlabeled levels wherever appropriate) and histone acetylation levels were analyzed as explained below.
Drosophila S2 Cell Immunofluorescence Staining: For immunofluorescence Drosophila S2 cells were seeded on Poly-L-Lysine coated (Sigma-Aldrich) glass microscope slides and allowed to settle for 45 min. Cells were fixed with 3.7% formaldehyde (Sigma Aldrich) for 20 min, washed briefly with PBS+0.1% Triton-X-100 (Sigma Aldrich) and permeabilized with PBS+0.2% Triton-X-100 for 20 min. The slides were incubated in primary antibody (rabbit anti-AcLys, Cell Signaling Cat No: 9441, 1:500) to visualize histone acetylation levels in PBS+0.1% Triton-X-100 overnight and after an additional washing step in PBS+0.1% Triton-X-100 they were incubated in secondary goat anti-rabbit-Alexa488 antibody (Molecular Probes) for two hours at room temperature (RT). F-actin was detected with Rhodamin-Phalloidin (20 U/ml)(Invitrogen) and DNA by staining with DAPI (0.2 ug/ml) (Thermo Scientific). Finally the samples were mounted in 80% glycerol and analyzed using a Leica fluorescence microscope with Leica software. Adobe Photoshop and Illustrator (Adobe Systems Incorporated, San Jose, Calif., USA) were used for image assembly.

In the case of O=S(=O)(O)c1cc(N=C=S)ccc1C=Cc1ccc(N=C=S)cc1S(=O)(=O)O [DIDS, 4,4′-diisothiocyanatostilbene-2,2′ disulphonic acid], the “effect on conversion (degradation) of CoA into 4′-phosphopantetheine in serum” value (“effect on conversion (degradation)” for short) [1] is reported as “able to inhibit”.

For c1ccc([C@H]2CN3CCSC3=N2)cc1 [Levamisole, levamisole], the “effect on conversion (degradation)” value [1] was “only mild or no inhibition”.

For [F-].[Na+] [sodium fluoride, Sodium fluoride], the “effect on conversion (degradation)” value [1] was “only mild or no inhibition”.

In the case of Cc1ccc(C(=O)Nc2ccc(S(=O)(=O)O)c3cc(S(=O)(=O)O)cc(S(=O)(=O)O)c23)cc1NC(=O)c1cccc(NC(=O)Nc2cccc(C(=O)Nc3cc(C(=O)Nc4ccc(S(=O)(=O)O)c5cc(S(=O)(=O)O)cc(S(=O)(=O)O)c45)ccc3C)c2)c1 [suramin], the “effect on conversion (degradation)” value [1] is reported as “able to inhibit”.

In the case of Nc1ncnc2c1ncn2[C@@H]1O[C@H](COP(=O)(O)OP(=O)(O)OP(=O)(O)O)[C@@H](O)[C@H]1O [ATP], the “effect on conversion (degradation)” value [1] is reported as “competitively blocked the conversion”.

With Nc1ncnc2c1ncn2[C@@H]1O[C@H](COP(=O)(O)OP(=O)(O)O)[C@@H](O)[C@H]1O [ADP] the “effect on conversion (degradation)” value [1] was “competitively blocked the conversion”.

In the case of Cn1c(=O)c2c(ncn2C)n(C)c1=O [caffeine], the “membrane permeation (PAMPA)” value [2] is reported as “well-permeating compound”.

With O=C(O)CN(CCN(CC(=O)O)CC(=O)O)CC(=O)O [EDTA] the “effect on conversion (degradation)” value [1] was “completely prevented the formation of 4′-phosphopantetheine”.

With N=C(N)NC(=O)c1nc(Cl)c(N)nc1N [amiloride] the “membrane permeation (PAMPA)” value [2] was “poorly permeating molecule”.

In the case of C=C(C)[C@H]1Cc2c(ccc3c2O[C@@H]2COc4cc(OC)c(OC)cc4[C@@H]2C3=O)O1 [Rotenone], the “cell line response to positive control” value [3] is reported as “generated expected profiles” and the “cell line response to positive control” value [4] is reported as “generated expected profiles of ETC inhibition”.

In the case of CC(C)(CO)[C@@H](O)C(=O)NCCCC(=O)O [HoPan, Hopantenate], the eclosion rate [5] is reported as “decreased”, the larval lethality [5] is reported as “larval lethality was induced” and the “intracellular CoA levels” value (HEK293 cells; HEK293 cells, HPLC) is reported as “significantly reduced”. The “cell count of HEK293 cells” value (HEK293 cells) was “decreased cell count”, the “histone acetylation of HEK293 cells” value (HEK293 cells) was “impaired histone acetylation” and the “cell count of S2 cells” value (Drosophila S2 cells) was “induced a decrease in cell count”. The “histone acetylation levels of S2 cells” value (Drosophila S2 cells) was “induced a decrease”, the “intracellular CoA levels” value (Drosophila S2 cells; S2 cells, HPLC) was “significantly reduced” and the “intracellular levels of 4′-phosphopantetheine” value (Drosophila S2 cells; S2 cells, HPLC) was “reduced levels of 4′-phosphopantetheine”.

From US20220133753A1, “COMPOSITIONS AND METHODS USEFUL FOR TREATING DISEASES CHARACTERIZED BY INSUFFICIENT PANTOTHENATE KINASE ACTIVITY” (Comet Therapeutics, Inc., priority 2016, published 2022)
